Source: PMC12775434, “Ultra-large virtual screening unveils potent agonists of the neuromodulatory orphan receptor GPR139” (Nature Communications, 2025)
Where “and” joins values, the source holds several entries; their conditions need not be identical. Identical values can stand only once. Like-named read-outs stand apart in the source and are kept apart here.

Target: T1, GPR139 (Homo sapiens, UniProt Q6DWJ6)
T1 sequence (Q6DWJ6 1-353): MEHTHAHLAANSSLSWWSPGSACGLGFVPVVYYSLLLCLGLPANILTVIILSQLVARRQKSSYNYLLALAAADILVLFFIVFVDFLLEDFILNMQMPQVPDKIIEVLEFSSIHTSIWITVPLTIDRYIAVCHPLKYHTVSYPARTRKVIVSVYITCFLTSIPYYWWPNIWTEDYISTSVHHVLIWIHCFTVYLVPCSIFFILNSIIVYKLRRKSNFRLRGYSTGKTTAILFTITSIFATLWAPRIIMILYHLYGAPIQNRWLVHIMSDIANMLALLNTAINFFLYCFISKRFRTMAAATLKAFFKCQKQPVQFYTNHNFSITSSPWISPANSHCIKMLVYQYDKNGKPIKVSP
Experiment: Ca2+ mobilization assay, agonist mode, stable GPR139-CHOk1 cell line
Assay type: cell-based
Details: for Emax: normalized to Lundbeck Cmp 1a, read-out: Emax (%), Ca2+ mobilization; for Ca2+ signal (% of Cmp 1a): individual replicates
Method in brief: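 Agonist activity of compounds is assessed in stably transfected CHO-K1 cells using the calcium dye Fluo-4 at 37 °C in HEPES-buffered HBSS (pH 7.4). Efficacy is expressed relative to the reference agonist Lundbeck Cmp 1a, set as 100%.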

EC50 (Supplementary Table 7, enantiopure compounds, read-out: pEC50, Ca2+ mobilization (converted)) [nM] | Emax (Supplementary Table 7) [%] | Ca2+ signal (% of Cmp 1a) (log [Compound] M -12.0) | EC50 (GPR139-CHOk1, read-out: EC50, Ca2+ mobilization) [nM] | SMILES | Ca2+ signal (% of Cmp 1a) (log [Compound] M -8.5) | Ca2+ signal (% of Cmp 1a) (log [Compound] M -9.0) | Ca2+ signal (% of Cmp 1a) (log [compound] M -4.5) | Ca2+ signal (% of Cmp 1a) (log [compound] M -5.0) | Ca2+ signal (% of Cmp 1a) (log [compound] M -5.5) | Ca2+ signal (% of Cmp 1a) (log [compound] M -6.0) | Ca2+ signal (% of Cmp 1a) (log [compound] M -6.5) | Ca2+ signal (% of Cmp 1a) (log [compound] M -7.0) | Ca2+ signal (% of Cmp 1a) (log [compound] M -7.5) | Ca2+ signal (% of Cmp 1a) (log [compound] M -8.0)
316 | 112 ± 1 | 0 % of Cmp 1a | – | Cc1cscc1-c1nc(CC(=O)N[C@H](C)c2ccccc2)no1 [1.1(R)] | 12 % of Cmp 1a and 7 % of Cmp 1a and 3.33 % of Cmp 1a | 9 % of Cmp 1a and 0.333 % of Cmp 1a and -1.33 % of Cmp 1a | 101 % of Cmp 1a and 112 % of Cmp 1a and 116 % of Cmp 1a | 100 % of Cmp 1a and 104 % of Cmp 1a and 97 % of Cmp 1a | 97 % of Cmp 1a and 88 % of Cmp 1a and 90 % of Cmp 1a | 74 % of Cmp 1a and 79 % of Cmp 1a and 77 % of Cmp 1a | 50 % of Cmp 1a and 51 % of Cmp 1a and 65 % of Cmp 1a | 32 % of Cmp 1a and 25 % of Cmp 1a and 37 % of Cmp 1a | 15 % of Cmp 1a and 13 % of Cmp 1a and 16 % of Cmp 1a | 9 % of Cmp 1a and 4.67 % of Cmp 1a and 8 % of Cmp 1a
– | 121 ± 11 | 0 % of Cmp 1a | 8 | Cc1cscc1-c1nc(CC(=O)N[C@@H](C)c2ccccc2)no1 [1.1(S)] | 28 % of Cmp 1a and 50 % of Cmp 1a and 51 % of Cmp 1a | 24 % of Cmp 1a and 31 % of Cmp 1a and 22 % of Cmp 1a | 102 % of Cmp 1a and 114 % of Cmp 1a and 136 % of Cmp 1a | 108 % of Cmp 1a and 117 % of Cmp 1a and 136 % of Cmp 1a | 90 % of Cmp 1a and 125 % of Cmp 1a and 141 % of Cmp 1a | 102 % of Cmp 1a and 120 % of Cmp 1a and 136 % of Cmp 1a | 96 % of Cmp 1a and 104 % of Cmp 1a and 131 % of Cmp 1a | 104 % of Cmp 1a and 95 % of Cmp 1a and 127 % of Cmp 1a | 92 % of Cmp 1a and 77 % of Cmp 1a and 113 % of Cmp 1a | 61 % of Cmp 1a and 62 % of Cmp 1a and 73 % of Cmp 1a
